Source: patent publication US12077503B2, “Substituted cyclic amides and their use as herbicides” (FMC CORPORATION, priority 2015, dated 2024)

Legend:
Assay type in all cases: in vivo
[1] = system: ducksalad (Heteranthera limosa); test: Test B flooded paddy test; details: Heteranthera limosa, 250 g ai/ha, Flood; 0 to 100 scale where 0 is no effect and 100 is complete control; read-out: Ducksalad plant response rating
How it was run: (§1)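 Compound goes directly into floodwater once pots are flooded 3 cm above soil, targeting plants at two leaves; the water depth is then held for the test duration. Plants sit 13–15 d in a greenhouse and are rated visually, 100 denoting complete control.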

rice (Oryra sativa) = test: Test B flooded paddy test; details: Oryza sativa, 250 g ai/ha, Flood; 0 to 100 scale where 0 is no effect and 100 is complete control; read-out: Rice plant response rating
How it was run: as §1

[2] = system: sedge, umbrella (small-flower umbrella sedge, Cyperus difformis); test: Test B flooded paddy test; details: Cyperus difformis, 250 g ai/ha, Flood; 0 to 100 scale where 0 is no effect and 100 is complete control; read-out: Sedge, Umbrella plant response rating
How it was run: as §1

[3] = system: barnyardgrass (Echinochloa crus-galli); test: Test B flooded paddy test; details: Echinochloa crus-galli, 250 g ai/ha, Flood; 0 to 100 scale where 0 is no effect and 100 is complete control; read-out: Barnyardgrass plant response rating
How it was run: as §1

[4] = system: ragweed (common ragweed, Ambrosia elatior); test: Test A postemergence; details: Ambrosia artemisiifolia, post-emergence, 240 h
How it was run: (§2)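 Visual injury, scored on a 0–100 scale relative to untreated controls, was recorded about 10 d after application. Treatments were a preemergence soil spray over planted seeds or a postemergence spray on plants at the one- to two-leaf stage, 2 to 10 cm tall, all in loam soil–sand blend in the greenhouse.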

[5] = system: Galium (catchweed bedstraw, Galium aparine); test: Test A postemergence; details: Galium, post-emergence, 240 h
How it was run: as §2

[6] = system: giant foxtail (Setaria faberii); test: Test A postemergence; details: Setaria faberi, post-emergence, 240 h
How it was run: as §2

[7] = system: wheat (Triticum aestivum); test: Test A postemergence; details: Triticum aestivum, post-emergence, 240 h
How it was run: as §2

[8] = system: ryegrass, Italian (Italian ryegrass, Lolium multiflorum); test: Test A postemergence; details: Lolium multiflorum, post-emergence, 240 h
How it was run: as §2

[9] = system: barnyardgrass (Echinochloa crus-galli); test: Test A postemergence; details: Echinochloa crus-galli, post-emergence, 240 h
How it was run: as §2

corn (Zea mays) = test: Test A postemergence; details: Zea mays, post-emergence, 240 h
How it was run: as §2

[10] = system: pigweed (Amaranthus retroflexus); test: Test A postemergence; details: Amaranthus retroflexus, post-emergence, 240 h
How it was run: as §2

[11] = system: blackgrass (Alopecurus myosuroides); test: Test A postemergence; details: Alopecurus myosuroides, post-emergence, 240 h
How it was run: as §2

Kochia (Kochia scoparia) [12] = test: Test A postemergence; details: Bassia scoparia, post-emergence, 240 h
How it was run: as §2

[13] = system: ragweed (common ragweed, Ambrosia elatior); test: Test A preemergence; details: Ambrosia artemisiifolia, pre-emergence, 240 h, 0 to 100 scale where 0 is no effect and 100 is complete control, read-out: Ragweed plant response rating
How it was run: as §2

[14] = system: giant foxtail (Setaria faberii); test: Test A preemergence; details: Setaria faberi, pre-emergence, 240 h, 0 to 100 scale where 0 is no effect and 100 is complete control, read-out: Foxtail, Giant plant response rating
How it was run: as §2

[15] = system: ryegrass, Italian (Italian ryegrass, Lolium multiflorum); test: Test A preemergence; details: Lolium multiflorum, pre-emergence, 240 h, 0 to 100 scale where 0 is no effect and 100 is complete control, read-out: Ryegrass, Italian plant response rating
How it was run: as §2

[16] = system: barnyardgrass (Echinochloa crus-galli); test: Test A preemergence; details: Echinochloa crus-galli, pre-emergence, 240 h, 0 to 100 scale where 0 is no effect and 100 is complete control, read-out: Barnyardgrass plant response rating
How it was run: as §2

[17] = system: pigweed (Amaranthus retroflexus); test: Test A preemergence; details: Amaranthus retroflexus, pre-emergence, 240 h, 0 to 100 scale where 0 is no effect and 100 is complete control, read-out: Pigweed plant response rating
Kochia (Kochia scoparia) [18] = test: Test A preemergence; details: Bassia scoparia, pre-emergence, 240 h, 0 to 100 scale where 0 is no effect and 100 is complete control, read-out: Kochia plant response rating
How it was run: as §2

[19] = 125 g ai/ha, preemergence, approx. 10 d

In the case of `CN1CC(c2cccc(C(F)(F)F)c2)C(C(=O)Nc2ccccc2CO)C1=O` (stereo not drawn) [Compound 1145], the pest or weed control at 250 g/ha [1] is reported as 60%, the pest or weed control at 250 g/ha (rice (Oryra sativa)) is reported as 30% and the pest or weed control at 250 g/ha [2] is reported as 40%. It also gave a pest or weed control at 250 g/ha [3] of 75%, a pest or weed control at 125 g/ha ([4]; 125 g ai/ha, postemergence, visual injury vs untreated controls after approx. 10 d, 0 = no effect, 100 = complete control, read-out: Ragweed plant response rating (0 to 100 scale)) of 0% and a pest or weed control at 31 g/ha ([4]; Postemergence, 31 g ai/ha, visual injury after approx. 10 d, 0 to 100 scale, 0 no effect, 100 complete control, read-out: Plant response rating, Ragweed) of 0%. The pest or weed control at 125 g/ha ([5]; 125 g ai/ha, postemergence, visual injury on 0 to 100 scale (0 no effect, 100 complete control), approx. 10 d, read-out: Galium plant response rating) was 0%, the pest or weed control at 31 g/ha ([5]; Postemergence, 31 g ai/ha, visual injury after approx. 10 d, 0 to 100 scale, 0 no effect, 100 complete control, read-out: Plant response rating, Galium) was 0% and the pest or weed control at 125 g/ha ([6]; 125 g ai/ha, postemergence, visual injury on 0 to 100 scale (0 no effect, 100 complete control), approx. 10 d, read-out: Foxtail, Giant plant response rating) was 90%. The pest or weed control at 31 g/ha ([6]; Postemergence, 31 g ai/ha, visual injury after approx. 10 d, 0 to 100 scale, 0 no effect, 100 complete control, read-out: Plant response rating, Foxtail, Giant) was 50%, the plant injury at 125 g/ha ([7]; 125 g ai/ha, postemergence, visual injury vs untreated controls after approx. 10 d, 0 = no effect, 100 = complete control, read-out: Wheat plant response rating (0 to 100 scale)) was 40% and the plant injury at 31 g/ha ([7]; Postemergence, 31 g ai/ha, visual injury after approx. 10 d, 0 to 100 scale, 0 no effect, 100 complete control, read-out: Plant response rating, Wheat) was 0%. It also gave a pest or weed control at 125 g/ha ([8]; 125 g ai/ha, postemergence, visual injury vs untreated controls after approx. 10 d, 0 = no effect, 100 = complete control, read-out: Ryegrass, Italian plant response rating (0 to 100 scale)) of 20%, a pest or weed control at 31 g/ha ([8]; Postemergence, 31 g ai/ha, visual injury after approx. 10 d, 0 to 100 scale, 0 no effect, 100 complete control, read-out: Plant response rating, Ryegrass, Italian) of 0% and a pest or weed control at 125 g/ha ([9]; 125 g ai/ha, postemergence, visual injury on 0 to 100 scale (0 no effect, 100 complete control), approx. 10 d, read-out: Barnyardgrass plant response rating) of 80%. The pest or weed control at 31 g/ha ([9]; Postemergence, 31 g ai/ha, visual injury after approx. 10 d, 0 to 100 scale, 0 no effect, 100 complete control, read-out: Plant response rating, Barnyardgrass) was 60%, the plant injury at 125 g/ha (corn (Zea mays); 125 g ai/ha, postemergence, visual injury on 0 to 100 scale (0 no effect, 100 complete control), approx. 10 d, read-out: Corn plant response rating) was 50% and the Corn plant response rating (crop injury, 0 = no effect, 100 = complete kill) at 31 g/ha (corn (Zea mays); Postemergence, 31 g ai/ha, visual injury after approx. 10 d, 0 to 100 scale, 0 no effect, 100 complete control) was 0%. It also gave a pest or weed control at 125 g/ha ([10]; 125 g ai/ha, postemergence, visual injury vs untreated controls after approx. 10 d, 0 = no effect, 100 = complete control, read-out: Pigweed plant response rating (0 to 100 scale)) of 0%, a pest or weed control at 31 g/ha ([10]; Postemergence, 31 g ai/ha, visual injury after approx. 10 d, 0 to 100 scale, 0 no effect, 100 complete control, read-out: Plant response rating, Pigweed) of 0% and a pest or weed control at 125 g/ha ([11]; 125 g ai/ha, postemergence, visual injury on 0 to 100 scale (0 no effect, 100 complete control), approx. 10 d, read-out: Blackgrass plant response rating) of 50%. For the same compound, the pest or weed control at 31 g/ha ([11]; Postemergence, 31 g ai/ha, visual injury after approx. 10 d, 0 to 100 scale, 0 no effect, 100 complete control, read-out: Plant response rating, Blackgrass) was 0%, the pest or weed control at 125 g/ha (Kochia (Kochia scoparia) [12]; 125 g ai/ha, postemergence, visual injury on 0 to 100 scale (0 no effect, 100 complete control), approx. 10 d, read-out: Kochia plant response rating) was 0% and the pest or weed control at 31 g/ha (Kochia (Kochia scoparia) [12]; Postemergence, 31 g ai/ha, visual injury after approx. 10 d, 0 to 100 scale, 0 no effect, 100 complete control, read-out: Plant response rating, Kochia) was 0%. It also gave a pest or weed control at 31 g/ha ([13]; 31 g ai/ha, Preemergence) of 0%, a pest or weed control at 125 g/ha [13, 19] of 0% and a pest or weed control at 31 g/ha ([14]; 31 g ai/ha, Preemergence) of 90%. The pest or weed control at 125 g/ha [14, 19] was 90%, the pest or weed control at 31 g/ha ([15]; 31 g ai/ha, Preemergence) was 0% and the pest or weed control at 125 g/ha [15, 19] was 30%. It also gave a pest or weed control at 31 g/ha ([16]; 31 g ai/ha, Preemergence) of 80%, a pest or weed control at 125 g/ha [16, 19] of 90% and a pest or weed control at 31 g/ha ([17]; 31 g ai/ha, Preemergence) of 0%. For the same compound, the pest or weed control at 125 g/ha [17, 19] was 0%, the pest or weed control at 31 g/ha (Kochia (Kochia scoparia) [18]; 31 g ai/ha, Preemergence) was 0% and the pest or weed control at 125 g/ha (Kochia (Kochia scoparia) [18]; [19]) was 50%.
